Measurements: the Kinase Knowledgebase extract (Sharma et al. 2016)

Molecular target: EGFR (human) (UniProt P00533)
Sequence (P00533 whole entry, looked up): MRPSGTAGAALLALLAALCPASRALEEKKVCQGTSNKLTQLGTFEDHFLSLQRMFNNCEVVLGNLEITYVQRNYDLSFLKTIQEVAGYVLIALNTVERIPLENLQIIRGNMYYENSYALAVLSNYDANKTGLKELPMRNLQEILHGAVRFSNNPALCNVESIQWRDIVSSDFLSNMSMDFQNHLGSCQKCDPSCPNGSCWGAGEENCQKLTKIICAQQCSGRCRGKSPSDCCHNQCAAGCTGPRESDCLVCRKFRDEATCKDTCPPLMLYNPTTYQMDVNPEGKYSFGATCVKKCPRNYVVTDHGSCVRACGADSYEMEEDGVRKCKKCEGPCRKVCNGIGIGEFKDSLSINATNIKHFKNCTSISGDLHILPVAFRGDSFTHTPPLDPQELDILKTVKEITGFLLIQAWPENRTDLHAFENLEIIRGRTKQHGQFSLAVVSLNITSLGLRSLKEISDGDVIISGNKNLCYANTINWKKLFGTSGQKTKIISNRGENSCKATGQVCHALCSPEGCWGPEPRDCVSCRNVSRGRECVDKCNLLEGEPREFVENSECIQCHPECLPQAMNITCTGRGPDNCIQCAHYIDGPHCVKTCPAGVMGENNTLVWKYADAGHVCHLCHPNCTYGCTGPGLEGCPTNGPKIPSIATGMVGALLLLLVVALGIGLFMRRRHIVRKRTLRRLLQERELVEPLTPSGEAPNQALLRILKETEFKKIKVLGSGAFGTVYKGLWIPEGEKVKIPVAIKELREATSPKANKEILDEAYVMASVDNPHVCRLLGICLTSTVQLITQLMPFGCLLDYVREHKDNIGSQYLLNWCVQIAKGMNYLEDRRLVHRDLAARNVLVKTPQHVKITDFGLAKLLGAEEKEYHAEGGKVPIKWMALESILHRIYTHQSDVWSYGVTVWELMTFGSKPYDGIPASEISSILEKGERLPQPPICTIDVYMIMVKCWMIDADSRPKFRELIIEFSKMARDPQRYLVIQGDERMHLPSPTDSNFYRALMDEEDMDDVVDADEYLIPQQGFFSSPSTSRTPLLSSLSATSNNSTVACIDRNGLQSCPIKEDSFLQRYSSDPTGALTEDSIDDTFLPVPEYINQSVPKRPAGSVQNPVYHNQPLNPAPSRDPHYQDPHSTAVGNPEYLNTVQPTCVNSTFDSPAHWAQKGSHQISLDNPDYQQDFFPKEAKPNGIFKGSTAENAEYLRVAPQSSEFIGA

Structure (SMILES)	IC50 [nM]
COc1ccc(Nc2nccc(-c3sc(NC4CC4)nc3-c3cccc(NC(=O)c4c(F)cccc4F)c3)n2)cc1OCCN(C)C	< 100
CN(C)CCOc1cccc(Nc2nccc(-c3sc(NCCCN4CCOCC4)nc3-c3cccc(NC(=O)c4c(F)cccc4F)c3)n2)c1	< 100
O=C(Nc1cccc(-c2nc(N3CCCCC3)sc2-c2ccnc(Nc3cccc(CN4CCCC4)c3)n2)c1)c1c(F)cccc1F	< 100
COc1ccc(Nc2nccc(-c3sc(N)nc3-c3cccc(NC(=O)c4c(F)cccc4F)c3)n2)cc1N1CCN(C)CC1	< 100
Cc1cc(-c2sc(N)nc2-c2cccc(NC(=O)c3c(F)cccc3F)c2)nc(Nc2cccc(OCCN(C)C)c2)n1	< 100
COc1ccc(Nc2nccc(-c3sc(NCCN4CCOCC4)nc3-c3cccc(NC(=O)c4cc(F)ccc4F)c3)n2)cc1F	< 100
O=C(Nc1cccc(-c2nc(NCCN3CCOCC3)sc2-c2ccnc(Nc3ccc4c(c3)CNCC4)n2)c1)c1c(F)cccc1F	< 100
CNc1nc(-c2cccc(NC(=O)c3cc(F)ccc3F)c2)c(-c2ccnc(Nc3ccc(OC)c(F)c3)n2)s1	< 100
COc1ccc(Nc2nccc(-c3sc(N)nc3-c3cccc(NC(=O)c4c(F)cccc4F)c3)n2)cc1N1CCNCC1	< 100
COc1ccc(Nc2nccc(-c3sc(N)nc3-c3cccc(NC(=O)c4c(F)cccc4F)c3)n2)cc1F	< 100
Cc1nc(-c2cccc(NC(=O)c3cc(F)ccc3F)c2)c(-c2ccnc(Nc3ccc(OCCN(C)C)c(F)c3)n2)s1	< 100
CN1CCC(c2nc(-c3cccc(NC(=O)c4c(F)cccc4F)c3)c(-c3ccnc(Nc4ccc5c(c4)CN(C)CC5)n3)s2)CC1	< 100
CN(C)CCOc1ccc(Nc2nccc(-c3sc(-c4ccc(O)cc4)nc3-c3cccc(NC(=O)c4c(F)cccc4F)c3)n2)cc1Cl	< 100
Cc1nc(-c2cccc(NC(=O)c3c(F)cccc3F)c2)c(-c2ccnc(Nc3ccc(OCCN(C)C)c(F)c3)n2)s1	< 100
Cc1nc(-c2cccc(NC(=O)c3ccc(F)cc3)c2)c(-c2ccnc(Nc3ccc(OCCN(C)C)c(Cl)c3)n2)s1	< 100
CN1CCc2ccc(Nc3nccc(-c4sc(N(C)C)nc4-c4cccc(NC(=O)c5c(F)cccc5F)c4)n3)cc2C1	< 100
CCc1nc(-c2cccc(NC(=O)c3c(F)cccc3F)c2)c(-c2ccnc(Nc3ccc(OCCN4CCCC4)c(F)c3)n2)s1	< 100
CN(C)c1nc(-c2cccc(NC(=O)c3c(F)cccc3F)c2)c(-c2ccnc(Nc3ccc(OCCN4CCCC4)c(Cl)c3)n2)s1	< 100
Cc1nc(-c2cccc(NC(=O)c3c(F)cccc3F)c2)c(-c2ccnc(Nc3cccc(F)c3)n2)s1	< 100
Nc1nc(-c2cccc(OCc3ccccc3)c2)c(-c2ccnc(Nc3ccc4c(c3)CNCC4)n2)s1	< 100
CN(C)CCOc1ccc(Nc2nccc(-c3sc(N)nc3-c3cccc(C(=O)Nc4c(F)cccc4F)c3)n2)cc1Cl	< 100
CS(=O)(=O)Cc1ccc(Nc2nccc(-c3sc(N)nc3-c3cccc(NC(=O)c4c(F)cccc4F)c3)n2)cc1	< 100
CN(C)C1Cc2ccc(Nc3nccc(-c4scnc4-c4cccc(NC(=O)Cc5cccs5)c4)n3)cc2C1 (stereo not given)	< 100
CN(C)CCCNc1ccc(Nc2nccc(-c3sc(N)nc3-c3cccc(NC(=O)C4CCCCC4)c3)n2)cc1F	< 100
CN(C)CCOc1cccc(Nc2nccc(-c3sc(N4CCCCC4)nc3-c3cccc(NC(=O)c4c(F)cccc4F)c3)n2)c1	< 100
Cc1nc(-c2cccc(NC(=O)c3c(F)cccc3F)c2)c(-c2ccnc(Nc3ccc(OCCN(C)C)c(Cl)c3)n2)s1	< 100
CN(C)CCOc1ccc(Nc2nccc(-c3scnc3-c3cccc(NC(=O)c4c(F)cccc4F)c3)n2)cc1Cl	< 100
Cc1nc(-c2cccc(NC(=O)c3c(F)cccc3F)c2)c(-c2ccnc(Nc3ccc(OC4CCN(C(C)C)CC4)c(F)c3)n2)s1	< 100

Structure (SMILES)	IC50 [nM]
CN(C)CCOc1ccc(Nc2nccc(-c3sc(N)nc3-c3ccc(F)c(NC(=O)c4c(F)cccc4F)c3)n2)cc1Cl	< 100
Nc1nc(-c2cccc(NC(=O)c3c(F)cccc3F)c2)c(-c2ccnc(Nc3ccc4c(c3)CNCC4)n2)s1	< 100
Cc1nc(-c2cccc(NC(=O)c3c(F)cccc3F)c2)c(-c2ccnc(Nc3cccc(CN4CCCC4)c3)n2)s1	< 100
O=C(Nc1cccc(-c2nc(N3CCC3)sc2-c2ccnc(Nc3ccc(OCCN4CCCC4)c(Cl)c3)n2)c1)c1c(F)cccc1F	< 100
Nc1nc(-c2cccc(NC(=O)c3cc(F)ccc3F)c2)c(-c2ccnc(Nc3cccc(-c4cnco4)c3)n2)s1	< 100
CS(=O)(=O)Cc1ccc(Nc2nccc(-c3scnc3-c3cccc(NC(=O)c4c(F)cccc4F)c3)n2)cc1	< 100
Cc1nc(-c2cccc(NC(=O)c3c(F)cccc3F)c2)c(-c2ccnc(Nc3ccc(OC4CCN(C)CC4)c(F)c3)n2)s1	< 100
COc1ccc(Nc2nccc(-c3sc(N)nc3-c3cccc(NC(=O)c4c(F)cccc4F)c3)n2)cc1OCCN(C)C	< 100
O=C(Nc1cccc(-c2nc(CO)sc2-c2ccnc(Nc3ccc(OCCN4CCCC4)c(F)c3)n2)c1)c1c(F)cccc1F	< 100
CN1CCc2ccc(Nc3nccc(-c4sc(N)nc4-c4cccc(NC(=O)c5c(F)cccc5F)c4)n3)cc2C1	< 100
Cc1nc(-c2cccc(NC(=O)c3cccc(Cl)c3)c2)c(-c2ccnc(Nc3ccc(OCCN(C)C)c(Cl)c3)n2)s1	< 100
CCc1nc(-c2cccc(NC(=O)c3c(F)cccc3F)c2)c(-c2ccnc(Nc3cccc(CN4CCCC4)c3)n2)s1	< 100
CC(C)(C)S(=O)(=O)Cc1nc(-c2cccc(NC(=O)c3c(F)cccc3F)c2)c(-c2ccnc(Nc3ccc(OCCN4CCCC4)c(Cl)c3)n2)s1	< 100
Nc1nc(-c2cccc(NC(=O)C3CCCCC3)c2)c(-c2ccnc(Nc3cccc(-c4cnco4)c3)n2)s1	< 100
O=C(Nc1cccc(-c2ncsc2-c2ccnc(Nc3ccc4c(c3)CNCC4)n2)c1)c1c(F)cccc1F	< 100
CNc1nc(-c2cccc(NC(=O)c3c(F)cccc3F)c2)c(-c2ccnc(Nc3ccc(OCCN(C)C)c(Cl)c3)n2)s1	< 100
Nc1nc(-c2cccc(NC(=O)c3c(F)cccc3F)c2)c(-c2ccnc(Nc3cccc(CN4CCCC4)c3)n2)s1	< 100
CCN(CC)CCOc1cccc(Nc2nccc(-c3sc(N)nc3-c3cccc(NC(=O)c4c(F)cccc4F)c3)n2)c1	< 100
Nc1nc(-c2cccc(NC(=O)c3c(F)cccc3F)c2)c(-c2ccnc(Nc3cccc(-c4cnco4)c3)n2)s1	< 100
O=C(Nc1cccc(-c2nc(NCCCN3CCOCC3)sc2-c2ccnc(Nc3cccc(F)c3)n2)c1)c1c(F)cccc1F	< 100
Nc1nc(-c2cccc(NC(=O)c3c(F)cccc3F)c2)c(-c2ccnc(Nc3cccc(CCS(N)(=O)=O)c3)n2)s1	< 100
COc1cccc(C(=O)Nc2cccc(-c3nc(C)sc3-c3ccnc(Nc4ccc5c(c4)CN(C)CC5)n3)c2)c1	< 100
CN(C)Cc1cccc(Nc2nccc(-c3scnc3-c3cccc(NC(=O)c4c(F)cccc4F)c3)n2)c1	< 100
CN(C)CCOc1cccc(Nc2nccc(-c3scnc3-c3cccc(NC(=O)c4cc(F)ccc4F)c3)n2)c1	< 100
CN(C)CCOc1ccc(Nc2nccc(-c3sc(N)nc3-c3cccc(NC(=O)c4cc(F)ccc4F)c3)n2)cc1Cl	< 100
Cc1nc(-c2cccc(NC(=O)c3cc(F)ccc3F)c2)c(-c2ccnc(Nc3ccc(OCCN(C)C)c(Cl)c3)n2)o1	< 100
NS(=O)(=O)CCc1cccc(Nc2nccc(-c3scnc3-c3cccc(NC(=O)c4cc(F)ccc4F)c3)n2)c1	< 100
